Patent US20260256923A1, “NEW RECRUITMENT ELEMENT OF UBIQUITIN LIGASE AND USE THEREOF” (SHENZHEN LINGGENE BIOTECH CO., LTD., priority 2023, published 2026)

Key:
MDM2 [1] = biological target: T1, MDM2 (Homo sapiens, UniProt P19338+Q00987); assay: MDM2 protein degradation in A549 non-small cell lung cancer cells, western blot; type: cell-based; conditions: A549, 200 nM, 3 h
T1 construct: endogenous in cells; host or cells: A549
Experimental: (1) A549 non-small cell lung cancer cells were incubated with 200 nM AS1411-VH032, and corresponding cell samples were collected at time gradients of 0 h, 3 h, 6 h, 9 h, 12 h, and 24 h for protein extraction and subsequent western blot assay to detect protein degradation.
(2) A549 non-small cell lung cancer cells were incubated with AS1411-VH032 at concentrations of 0 nM, 50 nM, 100 nM, 150 nM, 200 nM, and 250 nM. After 3 h, cell samples were collected for protein extraction and subsequent western blot assay to detect protein degradation.
(3) A549 non-small cell lung cancer cells were incubated with 200 nM AS1411, VH032, AS1411-VH032, or AS1411+VH032. After 3 h, cell samples were collected for protein extraction and subsequent western blot assay to detect protein degradation.
(4) A549 non-small cell lung cancer cells were incubated with 200 nM AS1411-VH032 for 3 h, and proteasome inhibitor MG132 was added. Cell samples were collected for protein extraction and subsequent western blot assay.
(5) A549 non-small cell lung cancer cells were transfected with si-NC or si-NCL and subsequently incubated with 200 nM AS1411-VH032 for 3 h. Cell samples were collected for protein extraction and subsequent western blot assay.
(1) A549 non-small cell lung cancer cells were incubated with 1000 nM AS1411-AS1411, and corresponding cell samples were collected at time gradients of 0 h, 3 h, 6 h, 9 h, 12 h, and 24 h for protein extraction and subsequent western blot assay to detect protein degradation.
(2) A549 non-small cell lung cancer cells were incubated with AS1411-AS1411 at concentrations of 0 nM, 50 nM, 100 nM, 250 nM, 500 nM, and 1000 nM. After 12 h, cell samples were collected for protein extraction and subsequent western blot assay to detect protein degradation.
(3) A549 non-small cell lung cancer cells were incubated with 1000 nM AS1411, AS1411-AS1411, or AS1411+AS1411. After 12 h, cell samples were collected for protein extraction and subsequent western blot assay to detect protein degradation. […]

[2] = system: MCF 10A human normal mammary epithelial cells; assay: Toxicity to normal cells, cell apoptosis proportion by flow cytometer; type: cell-based; conditions: 0-5000 nM, 4 days, medium renewed every day
Experimental: The toxicity of AS1411 to normal cells was compared with that of the small molecule ligand nutlin-3a of MDM2 to normal cells. AS1411 or nutlin-3a at different concentrations (0 nM, 500 nM, 1000 nM, and 5000 nM) was incubated with MCF 10A human normal mammary epithelial cells for 4 days, and the medium containing the respective concentrations of AS1411 or nutlin-3a was renewed every day. The cell apoptosis proportion was detected using a flow cytometer.

NCL [3] = biological target: T2, NCL (Homo sapiens, UniProt P19338); assay: Biotin-oligonucleotide pull-down from HeLa cell lysate, western blot (NCL); type: binding; set-up: HeLa cervical cancer cells were lysed with an IP lysis solution; endogenous in cells; host or cells: HeLa cell lysate; conditions: 5′-biotin label, 0 nM-20 μM
Experimental: (§1) HeLa cervical cancer cells were lysed with an IP lysis solution (purchased from Thermo Scientific, Cat. No.: 87788) and then incubated with a CRO (cytosine-rich oligonucleotide, negative control, SEQ ID NO: 13), AS1411, or iSN04 labeled by biotin at the 5′ end at different concentrations (0 nM, 200 nM, 500 nM, 1 μM, 5 μM, 10 μM, and 20 μM) at 4° C. for 6h. Subsequently, streptavidin agarose gel beads (purchased from cytiva, Cat. No.: 17511301) were added, and the mixture was further incubated at 4° C. overnight. After the bound biotin-labeled CRO, AS411, or iSN04 and its captured proteins on the gel beads were washed multiple times with an IP lysis buffer (purchased from Thermo Scientific, Cat. No.: 87788), an SDS-PAGE protein loading buffer (purchased from Beyotime, Cat. No.: P0015) was added, and the mixture was heated to 100° C. and held for 10 min. After centrifugation, the supernatant was collected as a pull-down product. The pull-down product was detected by western blot assay.

MDM2 [4] = biological target: T3, MDM2 (Homo sapiens, UniProt Q00987); assay: Biotin-oligonucleotide pull-down from HeLa cell lysate, western blot (MDM2); type: binding; set-up: HeLa cervical cancer cells were lysed with an IP lysis solution; endogenous in cells; host or cells: HeLa; conditions: 5′-biotin label, 0 nM-20 μM
Experimental: as §1
Target sequence in this assay (P19338 2-710 partner limits assumed): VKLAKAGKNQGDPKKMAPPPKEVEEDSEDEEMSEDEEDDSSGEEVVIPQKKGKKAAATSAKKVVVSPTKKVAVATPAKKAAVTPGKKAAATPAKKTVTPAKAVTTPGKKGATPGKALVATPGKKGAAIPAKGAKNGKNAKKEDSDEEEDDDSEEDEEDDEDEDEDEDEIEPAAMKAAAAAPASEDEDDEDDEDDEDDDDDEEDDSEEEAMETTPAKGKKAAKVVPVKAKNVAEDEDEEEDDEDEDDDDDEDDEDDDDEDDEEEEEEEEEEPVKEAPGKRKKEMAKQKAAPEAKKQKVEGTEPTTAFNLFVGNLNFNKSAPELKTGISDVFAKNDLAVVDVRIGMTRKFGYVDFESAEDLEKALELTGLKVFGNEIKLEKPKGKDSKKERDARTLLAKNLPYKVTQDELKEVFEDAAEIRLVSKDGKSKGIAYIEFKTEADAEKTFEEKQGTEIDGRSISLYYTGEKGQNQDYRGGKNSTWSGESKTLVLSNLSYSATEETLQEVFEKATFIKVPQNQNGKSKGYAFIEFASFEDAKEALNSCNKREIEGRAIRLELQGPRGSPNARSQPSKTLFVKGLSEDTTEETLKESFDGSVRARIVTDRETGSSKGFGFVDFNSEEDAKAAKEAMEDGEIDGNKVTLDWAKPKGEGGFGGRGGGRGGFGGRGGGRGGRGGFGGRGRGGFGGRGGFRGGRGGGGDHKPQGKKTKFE
Target sequence in this assay (Q00987 whole entry): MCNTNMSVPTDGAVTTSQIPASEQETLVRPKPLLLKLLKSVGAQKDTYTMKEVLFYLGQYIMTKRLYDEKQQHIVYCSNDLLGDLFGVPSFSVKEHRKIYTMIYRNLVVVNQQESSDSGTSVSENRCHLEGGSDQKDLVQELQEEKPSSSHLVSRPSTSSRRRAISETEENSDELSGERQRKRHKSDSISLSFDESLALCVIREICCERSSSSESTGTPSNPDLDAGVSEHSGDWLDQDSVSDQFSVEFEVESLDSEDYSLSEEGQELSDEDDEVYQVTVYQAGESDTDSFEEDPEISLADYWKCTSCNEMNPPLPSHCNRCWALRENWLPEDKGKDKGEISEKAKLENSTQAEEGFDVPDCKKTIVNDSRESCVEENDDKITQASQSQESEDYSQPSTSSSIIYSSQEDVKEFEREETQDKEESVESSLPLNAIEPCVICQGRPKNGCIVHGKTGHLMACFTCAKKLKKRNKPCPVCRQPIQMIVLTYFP

MDM2 [5] = biological target: T3, MDM2; assay: Biotin-oligonucleotide pull-down with recombinant proteins (MDM2); type: binding; set-up: purchased R&D Systems (MDM2); ACROBiosystems (NCL) E3-202-050 (MDM2); NUL-H5253 (NCL); conditions: 400 nM 5′-biotin label, 6 μg/mL NCL + 6 μg/mL MDM2
Experimental: (§2) 6 μg/mL recombinant human NCL and 6 μg/mL recombinant human MDM2 were mixed well and incubated at 4° C. for 7 h. Subsequently, 400 nM CRO, AS1411, or iSN04 labeled by biotin at the 5′ end was added, and the mixture was incubated at 4° C. for 6 h. Streptavidin agarose gel beads (purchased from cytiva, Cat. No.: 17511301) were added, and the mixture was further incubated at 4° C. overnight. The gel beads were washed 4 times with a TBST buffer, and an SDS-PAGE protein loading buffer (purchased from Beyotime, Cat. No.: P0015) was added. The mixture was heated to 100° C. and held for 10 min. After centrifugation, the supernatant was collected. The pull-down product was then detected by western blot assay.
Target sequence in this assay (P19338 whole entry partner): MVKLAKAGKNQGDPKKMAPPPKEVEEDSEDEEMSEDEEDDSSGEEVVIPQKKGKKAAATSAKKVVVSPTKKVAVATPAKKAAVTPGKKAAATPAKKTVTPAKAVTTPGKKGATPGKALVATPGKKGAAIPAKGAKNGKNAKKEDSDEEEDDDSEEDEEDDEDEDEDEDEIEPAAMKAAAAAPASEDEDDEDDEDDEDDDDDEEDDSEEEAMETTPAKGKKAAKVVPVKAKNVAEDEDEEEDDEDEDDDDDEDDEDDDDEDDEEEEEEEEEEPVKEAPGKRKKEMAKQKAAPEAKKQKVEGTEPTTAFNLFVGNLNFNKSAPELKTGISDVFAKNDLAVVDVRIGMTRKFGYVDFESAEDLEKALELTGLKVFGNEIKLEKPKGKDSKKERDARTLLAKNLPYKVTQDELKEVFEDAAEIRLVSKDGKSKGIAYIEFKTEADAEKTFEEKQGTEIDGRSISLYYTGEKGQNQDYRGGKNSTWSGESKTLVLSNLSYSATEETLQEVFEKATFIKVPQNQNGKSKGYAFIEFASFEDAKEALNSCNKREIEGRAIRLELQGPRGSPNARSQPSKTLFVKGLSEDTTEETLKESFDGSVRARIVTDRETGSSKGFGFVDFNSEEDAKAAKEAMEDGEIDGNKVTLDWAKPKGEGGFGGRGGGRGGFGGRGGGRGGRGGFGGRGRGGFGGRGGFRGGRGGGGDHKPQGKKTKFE
Target sequence in this assay (Q00987 whole entry): as the sequence (Q00987 whole entry) above

NCL [6] = biological target: T2, NCL; assay: Biotin-oligonucleotide pull-down with recombinant proteins (NCL); type: binding; set-up: purchased ACROBiosystems (NCL); R&D Systems (MDM2) NUL-H5253 (NCL); E3-202-050 (MDM2); conditions: 400 nM 5′-biotin label, 6 μg/mL NCL + 6 μg/mL MDM2
Experimental: as §2

[7] = G4 structural characteristics, N-methyl mesoporphyrin IX (NMM) fluorescent probe; type: physicochemical; conditions: 1 μM NMM
Experimental: Both AS1411 and iSN04 are oligonucleotides specifically binding to NCL. The sequence of AS1411 is SEQ ID NO: 1, and the sequence of iSN04 is SEQ ID NO: 14. AS1411 contains a plurality of GGT motifs, and iSN04 contains one GGT motif. Whether AS1411 and iSN04 have stable G4 structural characteristics was determined. The experimental process was as follows: 5 μM NC (negative control, SEQ ID NO: 15), AS1411, or iSN04 was added to water, and the total volume was 100 μL. The mixture was heated at 95° C. for 7 min and then immediately incubated on ice for 3 min, followed by the addition of 2 μL of N-methyl mesoporphyrin IX (NMM) (purchased from MCE, Cat. No.: HY-133821) to make a final concentration of 1 μM. The resulting mixture was incubated at room temperature for 1 h in the dark. The fluorescence intensity was detected by a microplate reader, with an emission wavelength of 550-700 nm and an excitation wavelength of […].
Guanine-rich DNA sequences can form more distinct G4 structural characteristics in the presence of metal ions (usually sodium and potassium ions). 5 μM NC (negative control, SEQ ID NO: 15), AS1411, or iSN04 was added to a 100 mM K^+ solution, and the total volume was 100 μL. The mixture was well mixed, heated at 95° C. for 7 min, and then immediately incubated on ice for 3 min, followed by the addition of 2 μL of N-methyl mesoporphyrin IX (NMM) (purchased from MCE, Cat. No.: HY-133821) to make a final concentration of 1 μM. The resulting mixture was incubated at room temperature for 1 h in the dark. The fluorescence intensity was detected by a microplate reader, with an emission wavelength of 550-700 nm and an excitation wavelength of […].

[8] = biological target: T4, interaction between NCL and MDM2 (Homo sapiens, UniProt P19338); assay: Co-immunoprecipitation of NCL and MDM2 from HeLa cell lysate, western blot; type: binding; conditions: 0-20 μM, 4° C. 6 h, IP with antibody against NCL
T4 construct: HeLa cervical cancer cells were lysed with an IP lysis solution; endogenous in cells; host or cells: HeLa cell lysate
Experimental: Co-immunoprecipitation (Co-IP) is a classical method for the study of protein interactions based on the specific interaction between an antibody and an antigen. It is an effective method to determine the physiological interaction between two proteins in intact cells.
HeLa cervical cancer cells were lysed with an IP lysis solution (purchased from Thermo Scientific, Cat. No.: 87788) and then incubated with AS 1411 or iSN04 at different concentrations (0 μM, 1 μM, 5 μM, 10 μM, and 20 μM) at 4° C. for 6 h. Subsequently, […] of an antibody against NCL was added, and the mixture was further incubated at 4° C. overnight. Protein A/G magnetic beads (purchased from Thermo Scientific, Cat. No.: 88802) were added, and the mixture was incubated with rotation at room temperature for 1.5 h. The bound NCL and its interacting proteins on the magnetic beads were washed with an IP lysis buffer (purchased from Thermo Scientific, Cat. No.: 87788), and an SDS-PAGE protein loading buffer (purchased from Beyotime, Cat. No.: P0015) was added. The mixture was heated to 100° C. and held for 10 min. The magnetic beads were adsorbed on a magnetic rack, and the supernatant was transferred into a new tube. Subsequently, western blot assay was performed to detect whether NCL bound to MDM2 and whether the binding was affected by AS 1411 or iSN04. […]

T2 sequence (P19338 whole entry): as the sequence (P19338 whole entry partner) above
T1 sequence (Q00987 whole entry): as the sequence (Q00987 whole entry) above
T1 sequence (P19338 2-710 limits assumed): as the sequence (P19338 2-710 partner limits assumed) above
T4 sequence (P19338 2-710 limits assumed): as the sequence (P19338 2-710 partner limits assumed) above

| Compound | protein level of MDM2 (MDM2 [1]) | toxicity to normal cells (cell apoptosis proportion) [2] | capture of NCL (NCL [3]) | capture of MDM2 (MDM2 [4]) | binding / recruitment of MDM2 (MDM2 [5]) | binding to NCL (NCL [6]) | G4 structural characteristics (fluorescence signal intensity) ([7]; 5 μM in 100 mM K+ solution) | G4 structural characteristics (fluorescence signal intensity) ([7]; 5 μM in water (no K+)) | effect on the interaction between NCL and MDM2 [8] |
| --- | --- | --- | --- | --- | --- | --- | --- | --- | --- |
| CC(=O)N[C@H](C(=O)N1C[C@H](O)C[C@H]1C(=O)NCc1ccc(-c2scnc2C)cc1)C(C)(C)C [VH032] | neither AS1411, VH032, nor AS1411+VH032 can reduce the protein level of MDM2 | – | – | – | – | – | – | – | – |
| COc1ccc(C2=N[C@@H](c3ccc(Cl)cc3)[C@@H](c3ccc(Cl)cc3)N2C(=O)N2CCNC(=O)C2)c(OC(C)C)c1 [nutlin-3a] | – | can cause cell apoptosis | – | – | – | – | – | – | – |
| CRO: cytosine-rich oligonucleotide, negative control, SEQ ID NO: 13 (DNA CCTCCTCCTCCTTCTCCTCCTCCTCC; DNA, backbone and methylation of C not given here; further chemistry not fully specified) | – | – | cannot capture either NCL or MDM2 | cannot capture either NCL or MDM2 | cannot bind to either NCL or MDM2 | cannot bind to either NCL or MDM2 | – | – | – |
| iSN04: oligonucleotide specifically binding to NCL, SEQ ID NO: 14: 5′-AGATTAGGGTGAGGGTGA-3′ (DNA, backbone not given here) | – | – | can capture NCL only at a high concentration | cannot capture MDM2 | cannot recruit MDM2 depending on its interaction with NCL | can only bind to NCL | 1000-2000 | No G4 structural characteristics were detected | blocks the binding of NCL to MDM2 |
